# Measurements published in paper PMC8615997, “The Pseudo-Symmetric N-benzyl Hydroxyethylamine Core in a New Series of Heteroarylcarboxyamide HIV-1 Pr Inhibitors: Synthesis, Molecular Modeling and Biological Evaluation” (Biomolecules, 2021).
# Biological target: T1, recombinant wild-type HIV-1 PR (Human immunodeficiency virus type 1 group M subtype B, UniProt P04585)
# T1 construct: recombinant wild-type HIV-1 PR from Bachem; purchased Bachem
# Assay: In vitro fluorometric HIV-1 protease inhibition assay (fluorogenic substrate Abz-Thr-Ile-Nle-Phe(p-NO2)-Gln-Arg-NH2, pH 5.5)
# Type: biochemical
# Conditions: not given
# Protocol: IC50 values were determined at pH 5.5 using recombinant wild-type HIV-1 PR from Bachem and the fluorogenic substrate Abz-Thr-Ile-Nle-Phe(p-NO2)-Gln-Arg-NH2 (Abz-NF⁄-6; Bachem AG, Bubendorf, CH). […] The assay was performed as follows: Dilution Buffer: 100 mM MES buffer, pH 5.5, containing 400 mM NaCl, 1 mM EDTA, 1 mM DTT and 1 mg/mL BSA. Solution A: 10 μL of a substrate stock solution in DMSO (10 mg/ml, 10.6 mM) were diluted in 1.99 ml of dilution buffer to a final concentration of […]. Solution B: 10 μL of a protease stock solution (0.4 mg/mL) in 10 mM sodium phosphate buffer, pH 6.5, containing 1 mM EDTA, 10% glycerol, 0.05% mercaptoethanol, 50 mM NaCl, were diluted 100 times with the dilution buffer, pH 5.5, to a final concentration of 0.004 mg/ml.
# Assay: 114 μL of solution A, 11 μL of solution B and 75 μL of the dilution buffer were pre-incubated in a cuvette at 25 °C, and the fluorescence was recorded at 325 nm excitation and 420 nm emission for 10 min. A total of 2 μL of the inhibitor in DMSO was then added, and the fluorescence was recorded for a further 10 min. […] IC50 was obtained by measuring the relative residual enzyme activity (ratio of the increase of fluorescence velocities before and after the addition of inhibitor) and by fitting the residual activity vs. inhibitor concentration semilog plots to a tetraparametric logistic function (Sigma plot 2001, SPSS Inc., Chicago, IL, USA). All the measures were triplicated.
# IC50 values were obtained on recombinant wild-type HIV protease by measuring the initial rates of hydrolysis of the fluorogenic substrate Abz-Thr-Ile-Nle-Phe(NO2)-Gln-Arg (Table 1). The initial rates of the enzyme-catalyzed reactions were measured at different inhibitors concentrations, while the reference rates for the not-inhibited reactions were measured each time before the addition of the inhibitors. IC50 was obtained by measuring the relative residual enzyme activity (ratio of the increase of fluorescence velocities before and after the addition of inhibitor) and by fitting the residual activity vs. inhibitor concentration semilog plots to a tetraparametric logistic function.
row,SMILES,IC50 [nM]
1,"O=C(N[C@@H](Cc1ccccc1)[C@H](O)CN(Cc1ccccc1)S(=O)(=O)c1ccc([N+](=O)[O-])cc1)c1ccc2sccc2c1 [Compound 7a, N-((2S,3R)-3-hydroxy-4-(N-benzyl-4-nitrophenylsulfonamido)-1-phenylbutan-2-yl)benzo[b]thiophene-5-carboxamide]",4.2
2,"COc1ccc(S(=O)(=O)N(Cc2ccccc2)C[C@@H](O)[C@H](Cc2ccccc2)NC(=O)c2ccc3sccc3c2)cc1 [Compound 7b, N-((2S,3R)-3-hydroxy-4-(N-benzyl-4-methoxyphenylsulfonamido)-1-phenylbutan-2-yl)benzo[b]thiophene-5-carboxamide]",2.3
3,"COc1ccc(S(=O)(=O)N(Cc2ccccc2)C[C@@H](O)[C@H](Cc2ccccc2)NC(=O)c2ccc3sccc3c2)cc1OC [Compound 7c, N-((2S,3R)-3-hydroxy-4-(N-benzyl-3,4-dimethoxyphenylsulfonamido)-1-phenylbutan-2-yl)benzo[b]thiophene-5-carboxamide]",6.2
4,"O=C(N[C@@H](Cc1ccccc1)[C@H](O)CN(Cc1ccccc1)S(=O)(=O)c1ccc([N+](=O)[O-])cc1)c1ccc2occc2c1 [Compound 8a, N-((2S,3R)-3-hydroxy-4-(N-benzyl-4-nitrophenylsulfonamido)-1-phenylbutan-2-yl)benzofuran-5-carboxamide]",47
5,"COc1ccc(S(=O)(=O)N(Cc2ccccc2)C[C@@H](O)[C@H](Cc2ccccc2)NC(=O)c2ccc3occc3c2)cc1 [Compound 8b, N-((2S,3R)-3-hydroxy-4-(N-benzyl-4-methoxyphenylsulfonamido)-1-phenylbutan-2-yl)benzofuran-5-carboxamide]",9.6
6,"COc1ccc(S(=O)(=O)N(Cc2ccccc2)C[C@@H](O)[C@H](Cc2ccccc2)NC(=O)c2ccc3occc3c2)cc1OC [Compound 8c, N-((2S,3R)-3-hydroxy-4-(N-benzyl-3,4-dimethoxyphenylsulfonamido)-1-phenylbutan-2-yl)benzofuran-5-carboxamide]",82

# Same assay, conditions: read-out: residual activity at the 0.5 nM inhibitor
row,SMILES,remaining activity at 0.0005 µM [%]
1,"O=C(N[C@@H](Cc1ccccc1)[C@H](O)CN(Cc1ccccc1)S(=O)(=O)c1ccc([N+](=O)[O-])cc1)c1ccc2[nH]ccc2c1 [Compound 9a, N-((2S,3R)-3-hydroxy-4-(N-benzyl-4-nitrophenylsulfonamido)-1-phenylbutan-2-yl)1H-indol-5-carboxamide]",27.7
2,"COc1ccc(S(=O)(=O)N(Cc2ccccc2)C[C@@H](O)[C@H](Cc2ccccc2)NC(=O)c2ccc3[nH]ccc3c2)cc1 [Compound 9b, N-((2S,3R)-3-hydroxy-4-(N-benzyl-4-methoxyphenylsulfonamido)-1-phenylbutan-2-yl)1H-indol-5-carboxamide]",36.3
3,"COc1ccc(S(=O)(=O)N(Cc2ccccc2)C[C@@H](O)[C@H](Cc2ccccc2)NC(=O)c2ccc3[nH]ccc3c2)cc1OC [Compound 9c, N-((2S,3R)-3-hydroxy-4-(N-benzyl-3,4-dimethoxyphenylsulfonamido)-1-phenylbutan-2-yl)1H-indol-5-carboxamide]",10.2
